The results in this text go back to US20240216589A1, “DRUG DELIVERY COMPOSITIONS AND METHODS OF CONTROLLING DRUG DELIVERY RATES OF SUBCUTANEOUS SENSORS” (ABBOTT DIABETIS CARE INC., priority 2022, published 2024).

Molecules are shown by their SMILES.

The nature of the data set: Dex solubility in the polyvinylpyridine-ethanol:water (95:5 by volume) solution. Type of data set: physicochemical. The protocol: FIG. 33 illustrates the Dex solubility in the polyvinylpyridine-ethanol:water (95:5 by volume) solution according to certain embodiments of the present disclosure. The solubility of Dex in the PVP-ethanol:water solution was measured. For the solutions containing 0 wt %-30 wt % of Dex relative to the weight amount of PVP polymer, after the solutions were vortexed/sonicated within 15 minutes, the solutions became clear. […] Therefore, the drug delivery composition can include up to 40 wt % of Dex relative to the amount of copolymer to make a clear drug delivery composition.

Turning to `C[C@@H]1C[C@H]2[C@@H]3CCC4=CC(=O)C=C[C@]4(C)[C@@]3(F)[C@@H](O)C[C@]2(C)[C@@]1(O)C(=O)CO` [Dex, dexamethasone], the solution clarity entry was “became clear” (0 wt %-30 wt % of Dex relative to PVP, vortexed/sonicated within 15 minutes); “became clear after mixing overnight” (40 wt % of Dex relative to PVP, mixing overnight on the nutator); “did not become clear” (50 wt % of Dex relative to PVP, mixing overnight on the nutator). In addition, the “maximum Dex relative to the amount of copolymer to make a clear drug delivery composition” value (ethanol:water 95:5 by volume) is listed as “up to 40 wt %”.
